Reference: patent publication US10017523B2, “NAMPT inhibitors and methods” (Genzyme Corporation, priority 2014, dated 2018)

Key:
[1] = molecular target: T1, Recombinant NAMPT enzyme (Homo sapiens, UniProt P43490); assay: Inhibition of NAMPT enzymatic activity; type: biochemical; conditions: for IC50: 6 hours at 37° C., NMN product detected
T1 construct: purchased MBL
Description: Recombinant NAMPT enzyme (MBL) was briefly pre-incubated in the absence or presence of inhibitor followed by addition of nicotinamide. Enzymatic reaction was allowed to proceed for 6 hours at 37° C. Reaction was terminated and NMN reaction product detected using the method as described in: Zhang R Y, Qin Y, Lv X Q, Wang P, Xu T Y, Zhang L, Miao C Y., Anal. Biochem. 2011 May 1; 412(1):18-25.
(§1) The 50% inhibitory concentration (IC50) is the concentration at which 50% of the maximal activity was inhibited.

[2] = test system: primary human B cells; assay: Anti-proliferative activity on B cells (anti-IgM stimulated, CellTiterGlo); type: cell-based; conditions: B-cell, 72 h, anti-IgM 10 ug/ml
Description: (§2) Fresh primary human B cells obtained from Analytical Biological Services (Wilmington, Del.) were diluted to 1×10^^6 cells per ml in AIM-V medium (Invitrogen), and stimulated with anti-IgM (10 ug/ml) (KPL) in the absence or presence of inhibitor for 72 hours at 37° C./5% CO2 prior to viability determination using CellTiterGlo (Promega) per manufacturer's instruction.
as §1

[3] = test system: primary human T cells; assay: Anti-proliferative activity on T cells (CD3/CD28 stimulated, CellTiterGlo); type: cell-based; conditions: T-cell, 72 h, CD3/CD28 beads
Description: as §2, with “human T” for “human B”, “with CD3/CD28 beads (Invitrogen)” for “with anti-IgM (10 ug/ml) (KPL)”
as §1

[4] = test system: acute T-cell leukemia (JURKAT); assay: Anti-proliferative activity on JURKAT cell line; type: cell-based; conditions: Homo sapiens, 72 h, CellTiterGlo
Description: (§3) Leukemia/Lymphoma cell lines (ATCC) were diluted in vendor-recommended media and incubated in the absence or presence of inhibitor for 72 hours at 37° C./5% CO2 prior to viability determination using CellTiterGlo (Promega) per manufacturer's instruction. The human cell lines studied include acute T-cell leukemia (JURKAT), chronic myelogenous leukemia (K562), and B-cell acute lymphocytic leukemia (NALM6 and SUP-B15).

[5] = test system: chronic myelogenous leukemia (K562); assay: Anti-proliferative activity on K562 cell line; type: cell-based; conditions: Homo sapiens, K562, 72 h, CellTiterGlo
Description: as §3

[6] = test system: B-cell acute lymphocytic leukemia (NALM6); assay: Anti-proliferative activity on NALM6 cell line; type: cell-based; conditions: Homo sapiens, NALM-6, 72 h, CellTiterGlo
Description: as §3

[7] = test system: B-cell acute lymphocytic leukemia (SUP-B15); assay: Anti-proliferative activity on SUP-B15 cell line; type: cell-based; conditions: Homo sapiens, SUP-B15, 72 h, CellTiterGlo
Description: as §3

[8] = test system: Sup-B15 cells; assay: Mechanism of action: NMN rescue of viability; type: cell-based, human; conditions: 200 μM NMN, 72 hours
Description: Sup-B15 cells (ATCC) were incubated in media lacking or containing 200 μM nicotinamide mononucleotide (NMN) (Sigma) in the absence or presence of inhibitor for 72 hours at 37° C./5% CO2 prior to viability determination using CellTiterGlo (Promega) per manufacturer's instruction.

[9] = molecular target: T2, Sup-B15 cell extract (Homo sapiens, UniProt P43490); assay: Chemical proteomics pull-down from Sup-B15 cell extract; type: binding; conditions: biotinylated derivative, streptavidin beads, elution with free compound, LC/MS
T2 construct: host or cells: Sup-B15 cells
T2 sequence (P43490 whole entry): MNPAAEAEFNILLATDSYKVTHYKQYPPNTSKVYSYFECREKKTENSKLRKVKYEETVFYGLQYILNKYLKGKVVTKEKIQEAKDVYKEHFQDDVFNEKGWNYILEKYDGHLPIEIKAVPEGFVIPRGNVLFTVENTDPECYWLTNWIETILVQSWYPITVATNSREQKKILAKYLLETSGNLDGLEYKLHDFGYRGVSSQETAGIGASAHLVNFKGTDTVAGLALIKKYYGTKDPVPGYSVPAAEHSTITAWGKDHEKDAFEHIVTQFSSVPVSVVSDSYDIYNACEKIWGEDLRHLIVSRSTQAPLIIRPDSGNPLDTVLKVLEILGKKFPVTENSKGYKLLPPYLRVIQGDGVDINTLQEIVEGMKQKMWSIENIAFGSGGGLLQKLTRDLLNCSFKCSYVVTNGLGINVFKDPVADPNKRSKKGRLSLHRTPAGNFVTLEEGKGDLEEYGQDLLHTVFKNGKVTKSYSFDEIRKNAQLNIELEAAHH
Description: Chemical proteomics. Sup-B15 cell extract was incubated with a biotinylated derivative of 4-(1′-isopropyl-4-oxospiro[chroman-2,4′-piperidin]-6-yl)-N-((3-methylisoxazol-5-yl)methyl)benzamide, followed by collection of compound/protein complexes with streptavidin beads (Invitrogen). […] Following SDS-PAGE, one prominent band was excised and identified by LC/MS as NAMPT.

[10] = test system: NALM6 leukemia model; assay: NALM6 leukemia study (survival); type: in vivo, female CB17SCID/Crl mice; conditions: i.p. twice daily for 35 days, compared with clofarabine
Description: 4-(1′-isopropyl-4-oxospiro[chroman-2,4′-piperidin]-6-yl)-N-((3-methylisoxazol-5-yl)methyl)benzamide was tested in the NALM6 leukemia model. […] 5×10^^6 NALM-6 cells were injected via tail vein into female CB17SCID/Crl mice (Charles River). One week later, 4-(1′-isopropyl-4-oxospiro[chroman-2,4′-piperidin]-6-yl)-N-((3-methylisoxazol-5-yl)methyl)benzamide was administered by i.p. injection twice daily for 35 days. Clofarabine was administered once daily by i.p. injection once daily for 5 days for four weeks. Study endpoint was survival time, and mice were sacrificed upon appearance of systemic signs of severe disease such as paralysis or cachexia.

[11] = test system: HCT116 solid tumor model; assay: HCT116 tumor growth study; type: in vivo, Female athymic nude mice; conditions: oral twice daily
Description: Tumor Growth Study: Female athymic nude mice (Crl:NU(Ncr)-Foxn1nu, Charles River) (n=10/group) were injected with 5×10^6 HCT116 cells, and treatment was initiated at average tumor size of 100 mm^3. 4-(1′-isopropyl-4-oxospiro[chroman-2,4′-piperidin]-6-yl)-N-((3-methylisoxazol-5-yl)methyl)benzamide and vehicle control were administered orally twice daily for 8 days. Tumor size was measured twice weekly with calipers.
4-(1′-isopropyl-4-oxospiro[chroman-2,4′-piperidin]-6-yl)-N-((3-methylisoxazol-5-yl)methyl)benzamide was also tested in the HCT116 solid tumor model.

T1 sequence (P43490 whole entry): as above

| Structure (SMILES) | IC50 [1] [µM] | IC50 [4] [µM] | IC50 [5] [µM] | IC50 [6] [µM] | IC50 [7] [µM] | inhibition of NAMPT enzyme activity [1] | IC50 [2] [µM] | IC50 [3] [µM] | effect of NMN on anti-proliferative activity [8] | molecular target identified [9] | survival [10] | mortality in the treated group [11] [%] | persistence of tumor growth delay after dosing was stopped [11] | tumor growth [11] |
| --- | --- | --- | --- | --- | --- | --- | --- | --- | --- | --- | --- | --- | --- | --- |
| Cc1cc(CNC(=O)c2ccc(-c3ccc4c(c3)C(=O)CC3(CCN(C(C)C)CC3)O4)cc2)on1 [4-(1′-isopropyl-4-oxospiro[chroman-2,4′-piperidin]-6-yl)-N-((3-methylisoxazol-5-yl)methyl)benzamide] | 0.0009 | 0.0179 | 0.0681 | 0.015 | 0.00244 | potently inhibits NAMPT enzyme activity | 0.0227 | 4.38 | counteracted by NMN | nicotinamide phosphoribosyl transferase (NAMPT) | significant survival benefit in this xenograft model, in excess of the standard of care (clofarabine) | 10 | persisted for at least one week after dosing was stopped | significant tumor growth delay |
| COCCCN1CCC2(CC1)CC(=O)c1cc(-c3ccc(C(=O)NCc4cncs4)cn3)ccc1O2 [6-(1′-(3-methoxypropyl)-4-oxospiro[chroman-2,4′-piperidin]-6-yl)-N-(thiazol-5-ylmethyl)nicotinamide] | 0.141 | 0.0196 | 0.0544 | 0.00938 | 0.00183 | – | 0.0438 | 3.29 | – | – | – | – | – | – |
| CCCN1CCC2(CC1)CC(=O)c1cc(-c3ccc(C(=O)NCc4cc(C)no4)cn3)ccc1O2 [N-((3-methylisoxazol-5-yl)methyl)-6-(4-oxo-1′-propylspiro[chroman-2,4′-piperidin]-6-yl)nicotinamide] | 0.001 | 0.00354 | 0.0194 | 0.00226 | 0.000706 | – | 0.0059 | 0.731 | – | – | – | – | – | – |

Now from value to compound, other results behind:

| IC50 [1] [µM] | IC50 [4] [µM] | IC50 [5] [µM] | IC50 [6] [µM] | IC50 [7] [µM] | Structure (SMILES) | inhibition of NAMPT enzyme activity [1] | IC50 [2] [µM] | IC50 [3] [µM] | effect of NMN on anti-proliferative activity [8] | molecular target identified [9] | survival [10] | mortality in the treated group [11] [%] | persistence of tumor growth delay after dosing was stopped [11] | tumor growth [11] |
| --- | --- | --- | --- | --- | --- | --- | --- | --- | --- | --- | --- | --- | --- | --- |
| 0.001 | 0.00638 | 0.0258 | 0.00363 | 0.00104 | CCCN1CCC2(C=Cc3cc(-c4ccc(C(=O)NCc5cc(C)no5)cn4)ccc3O2)CC1 [N-((3-methylisoxazol-5-yl)methyl)-6-(1′-propylspiro[chromene-2,4′-piperidin]-6-yl)nicotinamide] | – | 0.0044 | 0.342 | – | – | – | – | – | – |
| 0.0055 | 0.0204 | 0.0788 | 0.0088 | 0.0011 | CC(C)N1CCC2(CC1)CC(=O)c1cc(-c3ccc(C(=O)NCc4cncc(F)c4)cc3)ccc1O2 [N-((5-fluoropyridin-3-yl)methyl)-4-(1′-isopropyl-4-oxospiro[chroman-2,4′-piperidin]-6-yl)benzamide] | – | 0.0079 | 3.3 | – | – | – | – | – | – |
| 0.015 | 0.181 | 0.629 | 0.122 | 0.0209 | CC(C)N1CCC2(CC1)Oc1ccc(-c3ccc(C(=O)NCc4cnn(C)c4)cn3)cc1C(=O)N2C [6-(1′-isopropyl-3-methyl-4-oxo-3,4-dihydrospiro[benzo[e][1,3]oxazine-2,4′-piperidin]-6-yl)-N-((1-methyl-1H-pyrazol-4-yl)methyl)nicotinamide] | – | 0.0977 | 6.11 | – | – | – | – | – | – |
